Data on 2 molecules can be found in publication PMC10986512 (Microbiology Spectrum, 2024).

The subject of series [1] is VACV. The series is described as follows: microbe, parasite or virus in culture. It counts as cell-based, vaccinia virus (Western Reserve strain). Particulars: for EC50: Orthopoxvirus vaccinia.
The next series deals with MPXV. It counts as cell-based, Mpox virus (West African clade US2003, clade IIa).
Series [2] is described as follows: in vitro.
Another series concerns RPXV. The series is described as follows: microbe, parasite or virus in culture. The note with it: Rabbitpox virus, RAW264.7. Type of series: cell-based.
The next series has as its system CPXV. Description: microbe, parasite or virus in culture. Particulars: Cowpox virus. Type of series: cell-based, cowpox virus (Brighton Red strain).
Series [3] has as its system VACV. It counts as in vivo, BALB/c mice. Particulars: 21 days.
Series [4] has as its system VACV. Set-up: species or system BALB/c mice. The note with it: mouse, in vivo.
Series [5] deals with VACV. The arrangement: species or system BALB/c mice. The note with it: mouse, in vivo. This is another data set of the same source.
Series [6] relates to NS5B-mediated replication of hepatitis C virus RNA. The note with it: cited from earlier work.
Another series can be described thus: in vivo. Particulars: C57BL/6, mouse.
A short description of series [7]: in vitro. Particulars: mouse, plasma.
A short description of another series: physchem. Particulars: pH 7.4, aqueous buffer.
The conditions of series [8]: rat, in vivo; cited from earlier work.
The conditions of series [9]: dog, in vivo; cited from earlier work.

Values after ≈ are worked out from the molar mass of the structure shown. Values joined by “and” are separate entries in the source; they are usually repeats but may differ in a detail not shown here. Identical values can stand only once. Like-named read-outs stand apart in the source and are kept apart here.

As a reminder, the EC50 is the concentration that produces a half-maximal response. `O=C(NN1C(=O)[C@@H]2[C@@H]3C=C[C@@H]([C@H]4C[C@@H]34)[C@@H]2C1=O)c1ccc(C(F)(F)F)cc1` [ST-246]: the SI in the series with VACV [1] is >750 and >666.7; in the series with MPXV, more than 2189.8. In addition, the EC50 in the series with VACV [1] fell in the range of 1 to 10 nM. In the series “in vitro [2]”, the CC50 was more than 30 µM.

As usually defined, the bioavailability is the share of a dose that reaches the circulation, judged against a reference dose that is usually intravenous. The low end stands for poor availability, the high end for good availability. As a reminder, the clearance is the rate of elimination divided by the concentration. A lower clearance goes with inefficient removal. The term half-life denotes the time in which the quantity being followed falls by half. Low readings indicate rapid decline, high ones slow decline. For orientation: fraction unbound means free concentration divided by total concentration. One may read the solubility as the dissolved amount per volume that the medium holds. A lower solubility goes with little dissolved substance. As for `C[C@@]1(O)[C@H](O)[C@@H](CO)O[C@H]1n1cc(F)c2c(N)ncnc21` [UMM-766, 7-fluoro-7-deaza-2′-C-methyladenosine], in the series on VACV [1], the “EC50 and EC90 in MRC5 cells relative to RAW cells” value was 3- to 15 fold; the EC50 is less than 1000 nM. Also, the concentration giving a half-maximal response (EC50) in the series with RPXV is less than 1000 nM. The molecule further displayed a concentration for a half-maximal effect (EC50) with CPXV of 2.17 µM. The EC50 with CPXV (MRC5) was 8.09 µM. Besides, in the series with VACV [3], the survival is 66.7% and 80% and 100%. In addition, in the series on VACV [4], the “animals that met euthanasia criteria or died” value was “two”; the “maximum percentage weight change” value was −30.5% and −29.3% and −24.4%; the median survival worked out at 8 days. Further, in the series with VACV [5], the “IHC labeling in nasal cavity/turbinates” value is recorded as “minimal or absent labeling”; the “hemorrhage in the olfactory bulb” value was “completely absent”; the “meningeal necrosis in the olfactory bulb” value is “absent in two 3-mg/kg animals and two 10-mg/kg animals”; the “necrosis of the olfactory epithelium (nasal cavity, H&E)” value was “two animals having minimal necrosis and two with moderate necrosis”. In the series on VACV [5], the “severity of IHC labeling in nasal cavity/turbinates” value is listed as “markedly reduced” and the “severity/degree of IHC labeling in the lung” value is recorded as “mostly mild”. Further, the “IHC labeling in nasal cavity/turbinates” value with VACV [5] (10 mg/kg) is “labeling was absent”. In addition, the “effect on NS5B-mediated replication of hepatitis C virus RNA” value in series [6] is given as “decrease NS5B-mediated replication of hepatitis C virus RNA by chain termination”. In the series “in vivo”, this molecule showed a bioavailability of 48.8%, a clearance of 154 mL/min/kg and a half-life of 174 min. Besides, in “in vitro [7]”, the free fraction (fraction unbound) is 0.844. The solubility in the series “physchem” is 3300 µg/mL (≈ 11.1 mM). The highest tolerable dose in [8] is 10 mg/kg. The highest tolerable dose in [9] was 10 mg/kg.
